The test system of experiment [1] is inflammatory cells in blood. Put plainly: Radiation-irradiating model: CBC of inflammatory cells in blood. Type of experiment: in vivo, C57b1/6 mice. The note with it: mice, 8 Gy, 5 nmole/kg SP i.v. one day before and immediately after irradiation, 4.5 hours after irradiation, vs group without SP. As to the method: 5 nmole/kg of SP dissolved in a physiological saline was injected to a tail vein of C57b1/6 mice (8 weeks, sex; male, n=4, Average weight; 20 g) one day before irradiation and immediately after irradiation. The irradiation was performed at 8 Gy radiation in a Gamma lay radiation irradiator (^137Cs, Atomic Energy of Canada, Mississauga, Canada). The mice were sacrificed at 4.5 hours and one day after irradiation, and then the blood was collected. The part of the blood was used for analyzing CBC (Complete Blood Count) and the remaining blood was used to isolate serum and then analyze cytokines
200 μl of mouse's blood was taken at 4.5 hours and one day after 8 Gy radiation; it was added to a vial including a small amount of EDTA and then analyzed for CBC. […] It was confirmed that SP has an effect of inhibiting an increase of inflammatory cells caused by irradiation.

For the next experiment, the system named is leukocytes in blood. Kind of experiment: Corneal epithelial burn model: number of leukocytes in blood. Type of experiment: in vivo, New Zealand white rabbit. The note with it: rabbit, alkali burn of cornea; 5 nmole/kg SP i.v. twice; after three days after burning; vs continuously increased without SP; FIG. 6. As to the method:
Ketalar (50 mg/ml, Yuhan Corporation) and Rompun (23.32 mg (Xylazine hydrochloride)/ml, Bayer Korea Corporation) were mixed in a rate of 2:1, and then total 900 μl (Ketalar 600 μl: Rompun 300 μl) was injected into muscles of rabbits (New Zealand white rabbit, Male, 2.5 kg, n=4). After the intramuscular injection, 300 μl (Ketalar 200 μl: Rompun 100 μl) of the same anesthetic drug was injected in the rabbit's ear vein.
A 6 mm paper disc fully wetted by 1N NaOH was contacted to a limbus part of rabbit's cornea for 10 seconds. After alkali burning, corneal epithelium was removed in a size of the paper disc. The rabbit's eyes were quickly washed with a physiological saline immediately after alkali burning. At the same time, 5 nmole/kg of SP dissolved in a physiological saline was intravenously injected, and then after 24 hours, was injected once more (immediately after burning and at 24 hours after burning). For the control, PBS with the same volume was injected (injection Volume: 1 ml). […]
2 ml of the whole 10 ml was used for counting blood cells and the number of leukocytes was analyzed in Neodin (Company for analysis of blood cells). Concretely, 2 ml of blood was added to a vial including EDTA; it was well mixed; then the whole leukocyte level was analyzed in an automatic analyzer (SYSMEX XE-2100 automatic analyzer from SYSMEX Corporation [Japan]); and then the results were shown in FIG. 6.

Where no end group is shown, it is not given here.

In the case of “Substance-P (RPKPQQFFGLM; not fully specified; ends and bridges not checked; UniProt P20366 58-68, looked up)”, in experiment [1] (FIG. 7A), the “leukocyte (White Blood Cell) in blood” value is “decreased at least two times”. Further, the “mononuclear cell in blood” value in experiment [1] (FIG. 7B) is “decreased at least two times”. Moreover, the “neutrophilic leukocyte in blood” value in experiment [1] (FIG. 7C) was “decreased at least two times”. Moreover, the “decrease of eosinocyte in blood” value in experiment [1] (FIG. 7D) is reported as 30-40%. For the same substance, the “number of leukocytes in blood (increase % based on Day 0-level)” value with leukocytes in blood is “sharply decreased”.
